# According to ChEMBL document CHEMBL3797190, “Development of 3,5-Dinitrobenzylsulfanyl-1,3,4-oxadiazoles and Thiadiazoles as Selective Antitubercular Agents Active Against Replicating and Nonreplicating Mycobacterium tuberculosis” (J Med Chem, 2016):
# Key:
# Format in all cases: functional
# [1] = system: Mycobacterium tuberculosis; assay: Antimycobacterial activity against Mycobacterium tuberculosis CNCTC My 331/88 after 14 days by microdilution method; settings: CNCTC My 331/88, 336 h
# Mycobacterium avium [2] = assay: Antimycobacterial activity against Mycobacterium avium CNCTC My 330/88 after 14 days by microdilution method; settings: CNCTC My 330/88, 336 h
# Mycobacterium kansasii [3] = assay: Antimycobacterial activity against Mycobacterium kansasii CNCTC My 235/80 after 14 days by microdilution method; settings: CNCTC My 235/80, 336 h
# Mycobacterium kansasii [4] = assay: Antimycobacterial activity against Mycobacterium kansasii CNCTC My 6509/96 after 14 days by microdilution method; settings: CNCTC My 6509/96, 336 h
# [5] = system: Mycobacterium tuberculosis; assay: Antimycobacterial activity against Mycobacterium tuberculosis CNCTC My 331/88 after 21 days by microdilution method; settings: CNCTC My 331/88, 504 h
# Mycobacterium avium [6] = assay: Antimycobacterial activity against Mycobacterium avium CNCTC My 330/88 after 21 days by microdilution method; settings: CNCTC My 330/88, 504 h
# Mycobacterium kansasii [7] = assay: Antimycobacterial activity against Mycobacterium kansasii CNCTC My 235/80 after 21 days by microdilution method; settings: CNCTC My 235/80, 504 h
# Mycobacterium kansasii [8] = assay: Antimycobacterial activity against Mycobacterium kansasii CNCTC My 6509/96 after 21 days by microdilution method; settings: CNCTC My 6509/96, 504 h
# Mycobacterium kansasii [9] = assay: Antimycobacterial activity against Mycobacterium kansasii CNCTC My 235/80 after 7 days by microdilution method; settings: CNCTC My 235/80, 168 h
# Mycobacterium kansasii [10] = assay: Antimycobacterial activity against Mycobacterium kansasii CNCTC My 6509/96 after 7 days by microdilution method; settings: CNCTC My 6509/96, 168 h
Compound,MIC99 [1],MIC99 (Mycobacterium avium [2]),MIC99 (Mycobacterium kansasii [3]),MIC99 (Mycobacterium kansasii [4]),MIC99 [5],MIC99 (Mycobacterium avium [6]),MIC99 (Mycobacterium kansasii [7]),MIC99 (Mycobacterium kansasii [8]),MIC99 (Mycobacterium kansasii [9]),MIC99 (Mycobacterium kansasii [10])
Nc1cc(CSc2nnc(-c3ccc([N+](=O)[O-])cc3)s2)cc([N+](=O)[O-])c1,125 µM,250 µM,250 µM,250 µM,125 µM,250 µM,250 µM,250 µM,250 µM,250 µM
O=[N+]([O-])c1cc(CSc2nnc(C3CCCCC3)o2)cc([N+](=O)[O-])c1,≤ 0.03 µM,,,,≤ 0.03 µM,,,,,
COc1cc(OC)cc(-c2nnc(SCc3cc([N+](=O)[O-])cc([N+](=O)[O-])c3)o2)c1,0.125 µM,16 µM,0.25 µM,0.5 µM,0.125 µM,16 µM,0.5 µM,1 µM,0.125 µM,0.125 µM
Cc1ccc(-c2nnc(SCc3cc([N+](=O)[O-])cc([N+](=O)[O-])c3)s2)cc1,0.125 µM,> 125 µM,0.5 µM,1 µM,0.125 µM,> 125 µM,1 µM,2 µM,0.5 µM,0.5 µM
O=[N+]([O-])c1cc(CSc2nnc(-c3ccc(Cl)cc3)o2)cc(C(F)(F)F)c1,> 32 µM,> 500 µM,> 32 µM,> 32 µM,> 32 µM,> 500 µM,> 32 µM,> 32 µM,> 32 µM,> 32 µM
O=[N+]([O-])c1cc(CSc2nnc(-c3ccncc3)o2)cc([N+](=O)[O-])c1,0.5 µM,62 µM,2 µM,2 µM,0.5 µM,62 µM,2 µM,4 µM,1 µM,2 µM
O=[N+]([O-])c1cc(CSc2nnc(-c3ccccc3Cl)o2)cc([N+](=O)[O-])c1,0.125 µM,16 µM,0.25 µM,0.5 µM,0.125 µM,32 µM,0.5 µM,1 µM,0.125 µM,0.125 µM
O=[N+]([O-])c1cc(CSc2nnc(-c3ccc(O)cc3)o2)cc([N+](=O)[O-])c1,1 µM,62 µM,8 µM,8 µM,1 µM,62 µM,16 µM,16 µM,4 µM,4 µM
Cc1cc(C)cc(-c2nnc(SCc3cc([N+](=O)[O-])cc([N+](=O)[O-])c3)s2)c1,0.125 µM,> 16 µM,1 µM,0.5 µM,0.125 µM,> 16 µM,1 µM,0.5 µM,0.25 µM,0.25 µM
Nc1cc(N)cc(CSc2nnc(-c3ccc([N+](=O)[O-])cc3)s2)c1,250 µM,250 µM,250 µM,250 µM,250 µM,250 µM,250 µM,250 µM,250 µM,250 µM
O=[N+]([O-])c1ccc(-c2nnc(SCc3cc([N+](=O)[O-])cc(C(F)(F)F)c3)o2)cc1,32 µM,> 500 µM,32 µM,32 µM,32 µM,> 500 µM,32 µM,32 µM,16 µM,16 µM
O=[N+]([O-])c1ccc(-c2nnc(SCc3cc([N+](=O)[O-])cc(C(F)(F)F)c3)s2)cc1,> 32 µM,> 500 µM,> 32 µM,> 32 µM,> 32 µM,> 500 µM,> 32 µM,> 32 µM,> 32 µM,> 32 µM
Cc1ccc(-c2nnc(SCc3cc([N+](=O)[O-])cc(C(F)(F)F)c3)s2)cc1,> 32 µM,> 500 µM,> 32 µM,> 32 µM,> 32 µM,> 500 µM,> 32 µM,> 32 µM,> 32 µM,> 32 µM
O=[N+]([O-])c1ccc(CSc2nnc(-c3ccncc3)o2)c([N+](=O)[O-])c1,8 µM,62 µM,32 µM,32 µM,8 µM,62 µM,32 µM,32 µM,16 µM,32 µM
Cc1nnc(SCc2cc([N+](=O)[O-])cc([N+](=O)[O-])c2)s1,4 µM,125 µM,4 µM,8 µM,4 µM,125 µM,8 µM,16 µM,4 µM,8 µM
Cc1cc(C)cc(-c2nnc(SCc3cc([N+](=O)[O-])cc([N+](=O)[O-])c3)o2)c1,0.06 µM,> 32 µM,0.5 µM,1 µM,0.06 µM,> 32 µM,1 µM,2 µM,0.25 µM,0.5 µM
O=[N+]([O-])c1cc(CSc2nnc(-c3ccncc3)s2)cc([N+](=O)[O-])c1,0.125 µM,> 125 µM,1 µM,1 µM,0.125 µM,> 125 µM,1 µM,1 µM,0.5 µM,0.5 µM
O=[N+]([O-])c1cc(CSc2nnc(-c3ccc(Cl)cc3)s2)cc(C(F)(F)F)c1,> 32 µM,> 500 µM,> 32 µM,> 32 µM,> 32 µM,> 500 µM,> 32 µM,> 32 µM,> 32 µM,> 32 µM
Cc1ccc(-c2nnc(SCc3cc([N+](=O)[O-])cc(C(F)(F)F)c3)o2)cc1,> 32 µM,> 500 µM,> 32 µM,> 32 µM,> 32 µM,> 500 µM,> 32 µM,> 32 µM,> 32 µM,> 32 µM
O=[N+]([O-])c1ccc(CSc2nnc(-c3ccc([N+](=O)[O-])cc3)o2)cc1,250 µM,250 µM,250 µM,62 µM,250 µM,250 µM,250 µM,62 µM,250 µM,62 µM
O=[N+]([O-])c1ccc(CSc2nnc(-c3ccccc3)s2)c([N+](=O)[O-])c1,8 µM,8 µM,4 µM,2 µM,16 µM,32 µM,4 µM,4 µM,1 µM,1 µM
Cc1nnc(SCc2cc([N+](=O)[O-])cc([N+](=O)[O-])c2)o1,4 µM,500 µM,8 µM,16 µM,8 µM,500 µM,16 µM,32 µM,4 µM,16 µM
O=[N+]([O-])c1cc(CSc2nnc(-c3ccccc3Cl)s2)cc([N+](=O)[O-])c1,0.125 µM,16 µM,1 µM,1 µM,0.125 µM,> 16 µM,1 µM,1 µM,0.5 µM,0.5 µM
NNC(=O)c1ccncc1 [ISONIAZID],,> 250 µM,> 250 µM,4 µM,,> 250 µM,> 250 µM,4 µM,> 250 µM,4 µM
O=[N+]([O-])c1ccc(CSc2nnc(-c3ccc([N+](=O)[O-])cc3)s2)cc1,62 µM,250 µM,250 µM,62 µM,62 µM,250 µM,250 µM,62 µM,250 µM,62 µM
